Assay results published in PubChem BioAssay (NCI).
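Growth conditions: 96-well plates. Treatment: test compound, 48 hours, 5 concentrations. Analysis: linear interpolation between bracketing concentrations; unreached endpoints set to highest concentration. At the GI50, growth is halved. At the TGI there is no net growth.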

Legend:
Assay in all cases: DTP human tumour cell line panel, 48 h
MCF7 breast = tested on: MCF7 breast
HOP-92 NSCLC = tested on: HOP-92 NSCLC
LOX IMVI melanoma = tested on: LOX IMVI melanoma
SN12C renal = tested on: SN12C renal
DU-145 prostate = tested on: DU-145 prostate
RPMI-8226 leukemia = tested on: RPMI-8226 leukemia
NCI-H522 lung = tested on: NCI-H522 lung
HCC-2998 colon = tested on: HCC-2998 colon
NCI-H460 lung = tested on: NCI-H460 lung
CCRF-CEM leukemia = tested on: CCRF-CEM leukemia

C=C(CN1C(=O)CN(C)C1=O)c1ccc(C(=O)Nc2ccccc2N)cc1
GI50 (MCF7 breast): 12.7 µM
TGI (MCF7 breast): > 100 µM
GI50 (HOP-92 NSCLC): 26.5 µM
TGI (HOP-92 NSCLC): > 100 µM
GI50 (LOX IMVI melanoma): 18.2 µM
TGI (LOX IMVI melanoma): 69.9 µM
GI50 (SN12C renal): 14.1 µM
TGI (SN12C renal): 92.4 µM
GI50 (DU-145 prostate): 25.9 µM
TGI (DU-145 prostate): > 100 µM
GI50 (RPMI-8226 leukemia): 2.32 µM
TGI (RPMI-8226 leukemia): 14.8 µM
GI50 (NCI-H522 lung): 4.04 µM
TGI (NCI-H522 lung): 36.2 µM
GI50 (HCC-2998 colon): 22 µM
TGI (HCC-2998 colon): 54.3 µM
GI50 (NCI-H460 lung): 15.9 µM
TGI (NCI-H460 lung): > 100 µM
GI50 (CCRF-CEM leukemia): 11.6 µM
TGI (CCRF-CEM leukemia): 87.3 µM

COc1cccc(N2CCN(CC(=O)N3CCN(c4nnc(-c5ccc(Cl)cc5)c(-c5ccc(Cl)cc5)n4)CC3)CC2)c1
GI50 (MCF7 breast): 5.14 µM
TGI (MCF7 breast): 61.3 µM
GI50 (HOP-92 NSCLC): 14.7 µM
TGI (HOP-92 NSCLC): 36.4 µM
GI50 (LOX IMVI melanoma): 21.3 µM
TGI (LOX IMVI melanoma): > 100 µM
GI50 (SN12C renal): 23.1 µM
TGI (SN12C renal): > 100 µM
GI50 (DU-145 prostate): > 100 µM
TGI (DU-145 prostate): > 100 µM
GI50 (RPMI-8226 leukemia): 4.63 µM
TGI (RPMI-8226 leukemia): > 100 µM
GI50 (NCI-H522 lung): 19.8 µM
TGI (NCI-H522 lung): > 100 µM
GI50 (HCC-2998 colon): > 100 µM
TGI (HCC-2998 colon): > 100 µM
GI50 (NCI-H460 lung): 24.5 µM
TGI (NCI-H460 lung): > 100 µM
GI50 (CCRF-CEM leukemia): 27.2 µM
TGI (CCRF-CEM leukemia): > 100 µM

COc1ccc(-c2nn(-c3cccc(Cl)c3)cc2-c2cc(-c3cccs3)[nH]c(=S)n2)cc1
GI50 (MCF7 breast): 3.02 µM
TGI (MCF7 breast): 33.4 µM
GI50 (HOP-92 NSCLC): 2.2 µM
TGI (HOP-92 NSCLC): 10.8 µM
GI50 (LOX IMVI melanoma): 3.56 µM
TGI (LOX IMVI melanoma): 13.8 µM
GI50 (SN12C renal): 3.92 µM
TGI (SN12C renal): > 100 µM
GI50 (DU-145 prostate): 5.49 µM
TGI (DU-145 prostate): 72.5 µM
GI50 (RPMI-8226 leukemia): 2.42 µM
TGI (RPMI-8226 leukemia): 10.9 µM
GI50 (NCI-H522 lung): 2.54 µM
TGI (NCI-H522 lung): 8.86 µM
GI50 (HCC-2998 colon): 4.03 µM
TGI (HCC-2998 colon): 16.4 µM
GI50 (NCI-H460 lung): 3.01 µM
TGI (NCI-H460 lung): 11 µM
GI50 (CCRF-CEM leukemia): 2.8 µM
TGI (CCRF-CEM leukemia): > 100 µM

CN(CCO)CC[C@H](CSc1ccccc1)Nc1ccc(S(=O)(=O)NC(=O)c2ccc(N3CCC([C@@H](O)c4ccccc4-c4ccc(Cl)cc4)CC3)cc2)cc1S(=O)(=O)C(F)(F)F
GI50 (MCF7 breast): 2.97 µM
TGI (MCF7 breast): 12.2 µM
GI50 (HOP-92 NSCLC): 0.0415 µM
TGI (HOP-92 NSCLC): 0.387 µM
GI50 (LOX IMVI melanoma): 1.43 µM
TGI (LOX IMVI melanoma): 2.97 µM
GI50 (SN12C renal): 2.99 µM
TGI (SN12C renal): 11.5 µM
GI50 (DU-145 prostate): 21 µM
TGI (DU-145 prostate): > 100 µM
GI50 (RPMI-8226 leukemia): 0.16 µM
TGI (RPMI-8226 leukemia): 2.94 µM
GI50 (NCI-H522 lung): 4.4 µM
TGI (NCI-H522 lung): > 72.9 µM
GI50 (HCC-2998 colon): 0.286 µM
TGI (HCC-2998 colon): 1.69 µM
GI50 (NCI-H460 lung): 4.74 µM
TGI (NCI-H460 lung): 19.9 µM
GI50 (CCRF-CEM leukemia): 0.0472 µM
TGI (CCRF-CEM leukemia): > 100 µM

C[C@@]1(C(=O)O)CCC[C@]2(C)C1CC[C@@]13CC(=O)[C@@](CO)(CC[C@]12O)C3 (stereo not given in full)
GI50 (MCF7 breast): > 100 µM
TGI (MCF7 breast): > 100 µM
GI50 (HOP-92 NSCLC): 11.7 µM
TGI (HOP-92 NSCLC): 97.8 µM
GI50 (LOX IMVI melanoma): > 100 µM
TGI (LOX IMVI melanoma): > 100 µM
GI50 (SN12C renal): > 100 µM
TGI (SN12C renal): > 100 µM
GI50 (DU-145 prostate): > 100 µM
TGI (DU-145 prostate): > 100 µM
GI50 (RPMI-8226 leukemia): > 100 µM
TGI (RPMI-8226 leukemia): > 100 µM
GI50 (NCI-H522 lung): > 100 µM
TGI (NCI-H522 lung): > 100 µM
GI50 (HCC-2998 colon): 50.7 µM
TGI (HCC-2998 colon): > 100 µM
GI50 (NCI-H460 lung): > 100 µM
TGI (NCI-H460 lung): > 100 µM
GI50 (CCRF-CEM leukemia): > 100 µM
TGI (CCRF-CEM leukemia): > 100 µM

O=C(CCCCCCNC(=O)c1cnc(N(c2ccccc2)c2ccccc2)nc1)NO
GI50 (MCF7 breast): 2.99 µM
TGI (MCF7 breast): > 67.1 µM
GI50 (HOP-92 NSCLC): 2.13 µM
TGI (HOP-92 NSCLC): 15.7 µM
GI50 (LOX IMVI melanoma): 2.15 µM
TGI (LOX IMVI melanoma): 11.4 µM
GI50 (SN12C renal): 3.85 µM
TGI (SN12C renal): 62.4 µM
GI50 (DU-145 prostate): 3.82 µM
TGI (DU-145 prostate): > 100 µM
GI50 (RPMI-8226 leukemia): 1.29 µM
TGI (RPMI-8226 leukemia): > 100 µM
GI50 (NCI-H522 lung): 0.786 µM
TGI (NCI-H522 lung): 5.66 µM
GI50 (HCC-2998 colon): 3.38 µM
TGI (HCC-2998 colon): 12.5 µM
GI50 (NCI-H460 lung): 2.75 µM
TGI (NCI-H460 lung): > 100 µM
GI50 (CCRF-CEM leukemia): 1.03 µM
TGI (CCRF-CEM leukemia): > 100 µM

O=C1C(Cl)=C(Nc2cccc(Cl)c2)C(=O)N1Cc1ccc(Cl)cc1
GI50 (MCF7 breast): 0.499 µM
TGI (MCF7 breast): 13.6 µM
GI50 (HOP-92 NSCLC): 1.3 µM
TGI (HOP-92 NSCLC): 4.96 µM
GI50 (LOX IMVI melanoma): 0.408 µM
TGI (LOX IMVI melanoma): 8.49 µM
GI50 (SN12C renal): 1.24 µM
TGI (SN12C renal): 5.93 µM
GI50 (DU-145 prostate): 2.72 µM
TGI (DU-145 prostate): 11.4 µM
GI50 (RPMI-8226 leukemia): 0.266 µM
TGI (RPMI-8226 leukemia): 3.37 µM
GI50 (NCI-H522 lung): 0.916 µM
TGI (NCI-H522 lung): 8.21 µM
GI50 (HCC-2998 colon): 1.16 µM
TGI (HCC-2998 colon): 4.72 µM
GI50 (NCI-H460 lung): 0.538 µM
TGI (NCI-H460 lung): 15.7 µM
GI50 (CCRF-CEM leukemia): 0.318 µM
TGI (CCRF-CEM leukemia): > 19.8 µM

CSC(=Nc1nnc(-c2ccc([N+](=O)[O-])cc2)s1)SC
TGI (MCF7 breast): > 100 µM
TGI (HOP-92 NSCLC): 33.1 µM
TGI (LOX IMVI melanoma): > 83.3 µM
TGI (SN12C renal): > 100 µM
TGI (DU-145 prostate): > 100 µM
TGI (RPMI-8226 leukemia): > 100 µM
TGI (NCI-H522 lung): 99.2 µM
TGI (HCC-2998 colon): > 100 µM
TGI (NCI-H460 lung): > 100 µM
TGI (CCRF-CEM leukemia): > 100 µM

CCN(Cc1ccc(Cl)cc1)c1ccc(CO)c(Cl)c1
GI50 (MCF7 breast): 0.292 µM
TGI (MCF7 breast): 6.43 µM
GI50 (HOP-92 NSCLC): 1.52 µM
TGI (HOP-92 NSCLC): 11.1 µM
GI50 (LOX IMVI melanoma): 3.36 µM
TGI (LOX IMVI melanoma): 15.3 µM
GI50 (SN12C renal): 4.35 µM
TGI (SN12C renal): 19.3 µM
GI50 (DU-145 prostate): 7.89 µM
TGI (DU-145 prostate): 22.7 µM
GI50 (RPMI-8226 leukemia): 3.27 µM
TGI (RPMI-8226 leukemia): 32.9 µM
GI50 (NCI-H522 lung): 7.55 µM
TGI (NCI-H522 lung): 22.6 µM
GI50 (HCC-2998 colon): 7.7 µM
TGI (HCC-2998 colon): 21.9 µM
GI50 (NCI-H460 lung): 0.348 µM
TGI (NCI-H460 lung): 10.9 µM
GI50 (CCRF-CEM leukemia): 9.96 µM
TGI (CCRF-CEM leukemia): 45.6 µM

CCN(Cc1cc(Nc2nc(C)cn3c(-c4cn[nH]c4)cnc23)sn1)C(C)(C)CO
GI50 (MCF7 breast): 0.026 µM
TGI (MCF7 breast): 2.01 µM
GI50 (HOP-92 NSCLC): 0.0119 µM
TGI (HOP-92 NSCLC): 0.0714 µM
GI50 (LOX IMVI melanoma): < 0.0125 µM
TGI (LOX IMVI melanoma): 0.199 µM
GI50 (SN12C renal): 0.0301 µM
TGI (SN12C renal): 10.5 µM
GI50 (DU-145 prostate): 0.0822 µM
TGI (DU-145 prostate): 6.58 µM
GI50 (RPMI-8226 leukemia): 2.41 µM
TGI (RPMI-8226 leukemia): 10.1 µM
GI50 (NCI-H522 lung): 0.0227 µM
TGI (NCI-H522 lung): 2.26 µM
GI50 (HCC-2998 colon): 0.0741 µM
TGI (HCC-2998 colon): 4.56 µM
GI50 (NCI-H460 lung): 0.044 µM
TGI (NCI-H460 lung): 4.59 µM
GI50 (CCRF-CEM leukemia): < 0.01 µM
TGI (CCRF-CEM leukemia): 9.55 µM
